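GI50 = concentration required for 50% inhibition of growth. Definition used: TGI = concentration required for complete inhibition of growth.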
Legend:
Assay in all cases: NCI anticancer screen, dose series, 384-well format
K-562 leukemia = test system: K-562 leukemia
SK-MEL-2 melanoma = test system: SK-MEL-2 melanoma
T-47D breast = test system: T-47D breast
SF-539 CNS = test system: SF-539 CNS
HL-60(TB) leukemia = test system: HL-60(TB) leukemia
HOP-92 NSCLC = test system: HOP-92 NSCLC
NCI-H23 lung = test system: NCI-H23 lung
SF-268 CNS = test system: SF-268 CNS
NCI/ADR-RES ovarian = test system: NCI/ADR-RES ovarian
MDA-MB-231 breast = test system: MDA-MB-231 breast
SK-MEL-5 melanoma = test system: SK-MEL-5 melanoma
BT-549 breast = test system: BT-549 breast
IGROV1 ovarian = test system: IGROV1 ovarian
PC-3 prostate = test system: PC-3 prostate
KM12 colon = test system: KM12 colon
UACC-62 melanoma = test system: UACC-62 melanoma
NCI-H322M lung = test system: NCI-H322M lung
SK-OV-3 ovarian = test system: SK-OV-3 ovarian
HS 578T breast = test system: HS 578T breast
UACC-257 melanoma = test system: UACC-257 melanoma
NCI-H522 lung = test system: NCI-H522 lung
HOP-62 NSCLC = test system: HOP-62 NSCLC
SNB-19 CNS = test system: SNB-19 CNS
A498 renal = test system: A498 renal
OVCAR-8 ovarian = test system: OVCAR-8 ovarian
SN12C renal = test system: SN12C renal
CAKI-1 renal = test system: CAKI-1 renal
MDA-MB-468 breast = test system: MDA-MB-468 breast
OVCAR-4 ovarian = test system: OVCAR-4 ovarian
SR leukemia = test system: SR leukemia
HCT-15 colon = test system: HCT-15 colon
HT29 colon = test system: HT29 colon
SF-295 CNS = test system: SF-295 CNS
OVCAR-3 ovarian = test system: OVCAR-3 ovarian
CCRF-CEM leukemia = test system: CCRF-CEM leukemia
MDA-MB-435 melanoma = test system: MDA-MB-435 melanoma
NCI-H460 NSCLC = test system: NCI-H460 NSCLC
UO-31 renal = test system: UO-31 renal
DU-145 prostate = test system: DU-145 prostate
TK-10 renal = test system: TK-10 renal
OVCAR-5 ovarian = test system: OVCAR-5 ovarian
RXF 393 renal = test system: RXF 393 renal
MOLT-4 leukemia = test system: MOLT-4 leukemia
LOX IMVI melanoma = test system: LOX IMVI melanoma
COLO 205 colon = test system: COLO 205 colon
EKVX NSCLC = test system: EKVX NSCLC
U251 glioblastoma = test system: U251 glioblastoma

Cc1cc(Nc2cc(N)ncn2)c(=O)n2c1C(=O)NC21CCCCC1
GI50 (K-562 leukemia): > 100 µM
TGI (K-562 leukemia): > 100 µM
GI50 (SK-MEL-2 melanoma): > 100 µM
TGI (SK-MEL-2 melanoma): > 100 µM
GI50 (T-47D breast): > 100 µM
TGI (T-47D breast): > 100 µM
GI50 (SF-539 CNS): > 100 µM
TGI (SF-539 CNS): > 100 µM
GI50 (HL-60(TB) leukemia): > 100 µM
TGI (HL-60(TB) leukemia): > 100 µM
GI50 (HOP-92 NSCLC): > 23.2 µM
TGI (HOP-92 NSCLC): > 100 µM
GI50 (NCI-H23 lung): > 100 µM
TGI (NCI-H23 lung): > 100 µM
GI50 (SF-268 CNS): > 100 µM
TGI (SF-268 CNS): > 100 µM
GI50 (NCI/ADR-RES ovarian): > 100 µM
TGI (NCI/ADR-RES ovarian): > 100 µM
GI50 (MDA-MB-231 breast): > 100 µM
TGI (MDA-MB-231 breast): > 100 µM
GI50 (SK-MEL-5 melanoma): > 100 µM
TGI (SK-MEL-5 melanoma): > 100 µM
GI50 (BT-549 breast): > 76.9 µM
TGI (BT-549 breast): > 100 µM
GI50 (IGROV1 ovarian): > 100 µM
TGI (IGROV1 ovarian): > 100 µM
GI50 (PC-3 prostate): > 100 µM
TGI (PC-3 prostate): > 100 µM
GI50 (KM12 colon): > 100 µM
TGI (KM12 colon): > 100 µM
GI50 (UACC-62 melanoma): > 100 µM
TGI (UACC-62 melanoma): > 100 µM
GI50 (NCI-H322M lung): > 100 µM
TGI (NCI-H322M lung): > 100 µM
GI50 (SK-OV-3 ovarian): > 100 µM
TGI (SK-OV-3 ovarian): > 100 µM
GI50 (HS 578T breast): > 100 µM
TGI (HS 578T breast): > 100 µM
GI50 (UACC-257 melanoma): > 100 µM
TGI (UACC-257 melanoma): > 100 µM
GI50 (NCI-H522 lung): > 100 µM
TGI (NCI-H522 lung): > 100 µM
GI50 (HOP-62 NSCLC): > 100 µM
TGI (HOP-62 NSCLC): > 100 µM
GI50 (SNB-19 CNS): > 100 µM
TGI (SNB-19 CNS): > 100 µM
GI50 (A498 renal): > 100 µM
TGI (A498 renal): > 100 µM
GI50 (OVCAR-8 ovarian): > 100 µM
TGI (OVCAR-8 ovarian): > 100 µM
GI50 (SN12C renal): > 100 µM
TGI (SN12C renal): > 100 µM
GI50 (CAKI-1 renal): > 100 µM
TGI (CAKI-1 renal): > 100 µM
GI50 (MDA-MB-468 breast): > 100 µM
TGI (MDA-MB-468 breast): > 100 µM
GI50 (OVCAR-4 ovarian): > 100 µM
TGI (OVCAR-4 ovarian): > 100 µM
GI50 (SR leukemia): > 69.7 µM
TGI (SR leukemia): > 100 µM
GI50 (HCT-15 colon): > 100 µM
TGI (HCT-15 colon): > 100 µM
GI50 (HT29 colon): > 100 µM
TGI (HT29 colon): > 100 µM
GI50 (SF-295 CNS): > 100 µM
TGI (SF-295 CNS): > 100 µM
GI50 (OVCAR-3 ovarian): > 100 µM
TGI (OVCAR-3 ovarian): > 100 µM
GI50 (CCRF-CEM leukemia): > 100 µM
TGI (CCRF-CEM leukemia): > 100 µM
GI50 (MDA-MB-435 melanoma): > 100 µM
TGI (MDA-MB-435 melanoma): > 100 µM
GI50 (NCI-H460 NSCLC): > 100 µM
TGI (NCI-H460 NSCLC): > 100 µM
GI50 (UO-31 renal): > 100 µM
TGI (UO-31 renal): > 100 µM
GI50 (DU-145 prostate): > 100 µM
TGI (DU-145 prostate): > 100 µM
GI50 (TK-10 renal): > 100 µM
TGI (TK-10 renal): > 100 µM
GI50 (OVCAR-5 ovarian): > 100 µM
TGI (OVCAR-5 ovarian): > 100 µM
GI50 (RXF 393 renal): > 100 µM
TGI (RXF 393 renal): > 100 µM
GI50 (MOLT-4 leukemia): > 100 µM
TGI (MOLT-4 leukemia): > 100 µM
GI50 (LOX IMVI melanoma): > 100 µM
TGI (LOX IMVI melanoma): > 100 µM
GI50 (COLO 205 colon): > 100 µM
TGI (COLO 205 colon): > 100 µM
GI50 (EKVX NSCLC): > 100 µM
TGI (EKVX NSCLC): > 100 µM
GI50 (U251 glioblastoma): > 100 µM
TGI (U251 glioblastoma): > 100 µM
